Results taken from patent US20250034135A1, “ANTI-APOPTOTIC PROTEIN BCL-2 INHIBITOR, PHARMACEUTICAL COMPOSITION AND USES THEREOF” (HANGZHOU HEALZEN THERAPEUTICS CO., LTD., priority 2021, published 2025).

These compounds were tested against BCL2 (Homo sapiens (Human), UniProt P10415) (assay: Molecular level activity test of anti-apoptotic protein BCL2 (HTRF, binding to Bim peptide)). Conditions: HTRF, binding of BCL2 to Bim peptide; read-out: BCL2 nM (inhibitory activity, IC50).
In short: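 Compound (2% DMSO) was mixed with His-tagged recombinant BCL2 and biotinylated Bim peptide for 1 h. Detection used anti-His antibody plus streptavidin-XL665 for 4 h at room temperature, read by time-resolved fluorescence.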

Sequence of BCL2 (P10415 whole entry): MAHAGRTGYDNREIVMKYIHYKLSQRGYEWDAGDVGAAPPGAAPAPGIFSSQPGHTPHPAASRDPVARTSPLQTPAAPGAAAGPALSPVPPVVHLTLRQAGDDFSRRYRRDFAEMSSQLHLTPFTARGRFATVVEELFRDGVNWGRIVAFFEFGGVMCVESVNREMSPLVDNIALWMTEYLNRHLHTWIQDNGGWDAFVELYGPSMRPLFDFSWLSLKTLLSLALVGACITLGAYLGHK

Row | SMILES | IC50 [µM]
1 | COc1cc(CN2CCN(C3CC4(CCN(c5ccc(C(=O)NS(=O)(=O)c6cc([N+](=O)[O-])c(NC[C@H]7CC[C@](C)(O)CC7)c7c6OCO7)c(Oc6cnc7[nH]ccc7c6)c5)CC4)C3)[C@H](c3ccccc3C(C)C)C2)ccc1C1CC1 [compound 179, 2-((1H-pyrrolo[2,3-b]pyrid-5-yl)oxy)-4-(2-((R)-4-(4-cyclopropyl-3-methoxybenzyl)-2-(2-isopropylphenyl)piperazin-1-yl)-7-azaspiro[3.5]non-7-yl)-N-((7-((((1r, 4r)-4-hydroxy-4-methylcyclohexyl)methyl)amino)-6-nitrobenzo[d][1,3]dioxocyclopent-4-yl)sulfonyl)benzamide] | < 0.01
2 | COc1cc(CN2CCN(C3CC4(CCN(c5ccc(C(=O)NS(=O)(=O)c6cc([N+](=O)[O-])c(NC[C@H]7CC[C@](C)(O)CC7)c7c6OCO7)c(Oc6cnc7[nH]ccc7c6)c5)CC4)C3)[C@H](c3ccccc3C(C)C)C2)cc2cc(C)oc12 [compound 180] | < 0.01
3 | COc1ccc(CN2CCN(C3CC4(CCN(c5ccc(C(=O)NS(=O)(=O)c6cc([N+](=O)[O-])c(NCC7(F)CCOCC7)c7c6OCCO7)c(Oc6cnc7[nH]ccc7c6)c5)CC4)C3)[C@H](c3ccccc3C(C)C)C2)cc1 [compound 181] | < 0.01
4 | COc1ccc(CN2CCN(C3CC4(CCN(c5ccc(C(=O)NS(=O)(=O)c6cc([N+](=O)[O-])c(NC[C@H]7CC[C@](C)(O)CC7)c7c6OCCO7)c(Oc6cnc7[nH]ccc7c6)c5)CC4)C3)[C@H](c3ccccc3C(C)C)C2)cc1 [compound 182, 2-((1H-pyrrolo[2,3-b]pyrid-5-yl)oxy)-N-((8-((((1r, 4r)-4-hydroxy-4-methylcyclohexyl)methyl)amino)-7-nitro-2,3-dihydrobenzo[b][1,4]dioxan-5-yl)sulfonyl)-4-(2-((R)-2-(2-isopropylphenyl)-4-(4-methoxybenzyl)piperazin-1-yl)-7-azaspiro[3.5]non-7-yl)benzamide] | < 0.01
5 | COc1ccc(CN2CCN(C3CC4(CCN(c5ccc(C(=O)NS(=O)(=O)c6cc([N+](=O)[O-])c(NC[C@H]7COCCO7)c7c6OCCO7)c(Oc6cnc7[nH]ccc7c6)c5)CC4)C3)[C@H](c3ccccc3C(C)C)C2)cc1 [compound 183, N-((8-((((S)-1,4-dioxan-2-yl)methyl)amino)-7-nitro-2,3-dihydrobenzo[b][1,4]dioxan-5-yl)sulfonyl)-2-((1H-pyrrolo[2,3-b]pyrid-5-yl)oxy)-4-(2-((R)-2-(2-isopropylphenyl)-4-(4-methoxybenzyl)piperazin-1-yl)-7-azaspiro[3.5]non-7-yl)benzamide] | < 0.01
6 | COc1cc(CN2CCN(C3CC4(CCN(c5cc(Oc6cnc7[nH]ccc7c6)c(C(=O)NS(=O)(=O)c6ccc(NCC7(F)CCOCC7)c([N+](=O)[O-])c6)cc5F)CC4)C3)[C@H](c3ccccc3C(C)C)C2)ccc1C(C)C [compound 194, (R)-2-((1H-pyrrolo[2,3-b]pyrid-5-yl)oxy)-5-fluoro-N-((4-(((4-fluorotetrahydro-2H-pyran-4-yl)methyl)amino)-3-nitrophenyl)sulfonyl)-4-(2-(4-(4-isopropyl-3-methoxybenzyl)-2-(2-isopropylphenyl)piperazin-1-yl)-7-azaspiro[3.5]non-7-yl)benzamide] | < 0.01
7 | CC(C)c1ccccc1[C@@H]1CN(Cc2ccc(N(C)C)cc2)CCN1C1CC2(CCN(c3cc(Oc4cnc5[nH]ccc5c4)c(C(=O)NS(=O)(=O)c4ccc(NCC5(F)CCOCC5)c([N+](=O)[O-])c4)cc3F)CC2)C1 [compound 198, (R)-2-((1H-pyrrolo[2,3-b]pyrid-5-yl)oxy)-4-(2-(4-(4-(dimethylamino)benzyl)-2-(2-isopropylphenyl)piperazin-1-yl)-7-azaspiro[3.5]non-7-yl)-5-fluoro-N-((4-(((4-fluorotetrahydro-2H-pyran-4-yl)methyl)amino)-3-nitrophenyl)sulfonyl)benzamide] | < 0.01
8 | CC(C)c1ccccc1[C@@H]1CN(Cc2ccc(C#N)cc2)CCN1C1CC2(CCN(c3cc(Oc4cnc5[nH]ccc5c4)c(C(=O)NS(=O)(=O)c4ccc(NCC5(F)CCOCC5)c([N+](=O)[O-])c4)cc3F)CC2)C1 [compound 199, (R)-2-((1H-pyrrolo[2,3-b]pyrid-5-yl)oxy)-4-(2-(4-(4-cyanobenzyl)-2-(2-isopropylphenyl)piperazin-1-yl)-7-azaspiro[3.5]non-7-yl)-5-fluoro-N-((4-(((4-fluorotetrahydro-2H-pyran-4-yl)methyl)amino)-3-nitrophenyl)sulfonyl)benzamide] | < 0.01
9 | CC(=O)Nc1ccc(CN2CCN(C3CC4(CCN(c5cc(Oc6cnc7[nH]ccc7c6)c(C(=O)NS(=O)(=O)c6ccc(NCC7(F)CCOCC7)c([N+](=O)[O-])c6)cc5F)CC4)C3)[C@H](c3ccccc3C(C)C)C2)cc1 [compound 200, (R)-2-((1H-pyrrolo[2,3-b]pyrid-5-yl)oxy)-4-(2-(4-(4-acetylaminobenzyl)-2-(2-isopropylphenyl)piperazin-1-yl)-7-azaspiro[3.5]non-7-yl)-5-fluoro-N-((4-(((4-fluorotetrahydro-2H-pyran-4-yl)methyl)amino)-3-nitrophenyl)sulfonyl)benzamide] | < 0.01
10 | CC(C)c1ccccc1[C@@H]1CN(Cc2ccc(NS(C)(=O)=O)cc2)CCN1C1CC2(CCN(c3cc(Oc4cnc5[nH]ccc5c4)c(C(=O)NS(=O)(=O)c4ccc(NCC5(F)CCOCC5)c([N+](=O)[O-])c4)cc3F)CC2)C1 [compound 201, (R)-2-((1H-pyrrolo[2,3-b]pyrid-5-yl)oxy)-5-fluoro-N-((4-(((4-fluorotetrahydro-2H-pyran-4-yl)methyl)amino)-3-nitrophenyl)sulfonyl)-4-(2-(2-(2-isopropylphenyl)-4-(4-(methylsulfonylamino)benzyl)piperazin-1-yl)-7-azaspiro[3.5]non-7-yl)benzamide] | < 0.01
11 | COc1cc(CN2CCN(C3CC4(CCN(c5cc(Oc6cnc7[nH]ccc7c6)c(C(=O)NS(=O)(=O)c6ccc(NCC7(F)CCOCC7)c([N+](=O)[O-])c6)cc5F)CC4)C3)[C@H](c3ccccc3C(C)C)C2)cc2cc(C)oc12 [compound 202, (R)-2-((1H-pyrrolo[2,3-b]pyrid-5-yl)oxy)-5-fluoro-N-((4-(((4-fluorotetrahydro-2H-pyran-4-yl)methyl)amino)-3-nitrophenyl)sulfonyl)-4-(2-(2-(2-isopropylphenyl)-4-((7-methoxy-2-methylbenzofuran-5-yl)methyl)piperazin-1-yl)-7-azaspiro[3.5]non-7-yl)benzamide] | < 0.01
12 | COc1ccc(CN2CCN(C3CC4(CCN(c5cc(Oc6cnc7[nH]ccc7c6)c(C(=O)NS(=O)(=O)c6ccc(NCC7(F)CCOCC7)c([N+](=O)[O-])c6)cc5F)CC4)C3)[C@H](c3ccccc3C(C)C)C2)c2c1OCCO2 [compound 206, (R)-2-((1H-pyrrolo[2,3-b]pyrid-5-yl)oxy)-5-fluoro-N-((4-(((4-fluorotetrahydro-2H-pyran-4-yl)methyl)amino)-3-nitrophenyl)sulfonyl)-4-(2-(2-(2-isopropylphenyl)-4-(8-methoxy-2,3-dihydrobenzo[b][1,4-dioxan-5-yl)methyl)piperazin-1-yl)-7-azaspiro[3.5]non-7-yl)benzamide] | < 0.01
13 | CC(C)c1ccccc1[C@@H]1CN(Cc2cccc3c2OCCO3)CCN1C1CC2(CCN(c3cc(Oc4cnc5[nH]ccc5c4)c(C(=O)NS(=O)(=O)c4ccc(NCC5(F)CCOCC5)c([N+](=O)[O-])c4)cc3F)CC2)C1 [compound 208, (R)-2-((1H-pyrrolo[2,3-b]pyrid-5-yl)oxy)-4-(2-(4-((2,3-dihydrobenzo[b][1,4]dioxan-5-yl)methyl)-2-(2-isopropylphenyl)piperazin-1-yl)-7-azaspiro[3.5]non-7-yl)-5-fluoro-N-((4-(((4-fluorotetrahydro-2H-pyran-4-yl)methyl)amino)-3-nitrophenyl)sulfonyl)benzamide] | < 0.01
14 | CC(C)c1ccccc1[C@@H]1CN(Cc2cnn(C(C)C)c2)CCN1C1CC2(CCN(c3cc(Oc4cnc5[nH]ccc5c4)c(C(=O)NS(=O)(=O)c4ccc(NCC5(F)CCOCC5)c([N+](=O)[O-])c4)cc3F)CC2)C1 [compound 210, (R)-2-((1H-pyrrolo[2,3-b]pyrid-5-yl)oxy)-5-fluoro-N-((4-(((4-fluorotetrahydro-2H-pyran-4-yl)methyl)amino)-3-nitrophenyl)sulfonyl)-4-(2-(4-((1-isopropyl-1H-pyrazol-4-yl)methyl)-2-(2-isopropylphenyl)piperazin-1-yl)-7-azaspiro[3.5]non-7-yl)benzamide] | < 0.01
15 | CC(C)c1ccccc1[C@@H]1CN(Cc2ccncc2)CCN1C1CC2(CCN(c3cc(Oc4cnc5[nH]ccc5c4)c(C(=O)NS(=O)(=O)c4ccc(NCC5(F)CCOCC5)c([N+](=O)[O-])c4)cc3F)CC2)C1 [compound 211, (R)-2-((1H-pyrrolo[2,3-b]pyrid-5-yl)oxy)-5-fluoro-N-((4-(((4-fluorotetrahydro-2H-pyran-4-yl)methyl)amino)-3-nitrophenyl)sulfonyl)-4-(2-(2-(2-isopropylphenyl)-4-(pyrid-4-ylmethyl)piperazin-1-yl)-7-azaspiro[3.5]non-7-yl)benzamide] | < 0.01
16 | CC(C)c1ccccc1[C@@H]1CN(Cc2ccc(C#N)cc2)CCN1C1CC2(CCN(c3cc(Oc4cnc5[nH]ccc5c4)c(C(=O)NS(=O)(=O)c4ccc(NC[C@H]5CC[C@](C)(O)CC5)c([N+](=O)[O-])c4)cc3F)CC2)C1 [compound 214, 2-((1H-pyrrolo[2,3-b]pyrid-5-yl)oxy)-4-(2-((R)-4-(4-cyanobenzyl)-2-(2-isopropylphenyl)piperazin-1-yl)-7-azaspiro[3.5]non-7-yl)-5-fluoro-N-((4-((((1r, 4r)-4-hydroxy-4-methylcyclohexyl)methyl)amino)-3-nitrophenyl)sulfonyl)benzamide] | < 0.01
17 | CC(C)c1ccccc1[C@@H]1CN(Cc2ccc(F)cc2)CCN1C1CC2(CCN(c3cc(Oc4cnc5[nH]ccc5c4)c(C(=O)NS(=O)(=O)c4ccc(NC[C@H]5CC[C@](C)(O)CC5)c([N+](=O)[O-])c4)cc3F)CC2)C1 [compound 215, 2-((1H-pyrrolo[2,3-b]pyrid-5-yl)oxy)-5-fluoro-4-(2-((R)-4-(4-fluorobenzyl)-2-(2-isopropylphenyl)piperazin-1-yl)-7-azaspiro[3.5]non-7-yl)-N-((4-((((1r, 4r)-4-hydroxy-4-methylcyclohexyl)methyl)amino)-3-nitrophenyl)sulfonyl)benzamide] | < 0.01
